# Reference: ChEMBL document CHEMBL1201862, “PubChem BioAssay data set” (2004)
#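 Test compounds were applied to cells in 96-well plates for 48 hours at 5 doses. GI50 = concentration required for 50% inhibition of growth.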 Active and inactive are the calls of the source. Rule as the data show it: active = GI50 up to about 1.1 µM and inactive = higher.
# Legend:
# Assay in all cases: growth of human tumour cells (NCI), 48 h
# [1] = system: MDA-MB-435
# [2] = system: UACC-62
# [3] = system: MDA-N
# [4] = system: A498
# [5] = system: MCF7
# [6] = system: SK-MEL-2
# [7] = system: KM12
# [8] = system: NCI-H23
# [9] = system: A549
# [10] = system: SN12C
# [11] = system: RPMI-8226
# [12] = system: ACHN
# [13] = system: NCI/ADR-RES
# [14] = system: NCI-H522
# [15] = system: PC-3
# [16] = system: HT-29
# [17] = system: SF-295
# [18] = system: NCI-H460
# [19] = system: HL-60
# [20] = system: CCRF-CEM
# [21] = system: M14
# [22] = system: SK-MEL-5
# [23] = system: OVCAR-8
# [24] = system: SW-620
# [25] = system: OVCAR-5
# [26] = system: IGROV-1
# [27] = system: HCT-116
# [28] = system: EKVX
# [29] = system: TK-10
# [30] = system: COLO 205
# [31] = system: SK-OV-3
# [32] = system: T47D
# [33] = system: NCI-H226
# [34] = system: MOLT-4
# [35] = system: 786-0
# [36] = system: BT-549
# [37] = system: LOX IMVI
# [38] = system: UACC-257
# [39] = system: HOP-92
# [40] = system: HCT-15
# [41] = system: SNB-19
# [42] = system: Malme-3M
# [43] = system: CAKI-1
# [44] = system: OVCAR-3
# [45] = system: U-251
# [46] = system: OVCAR-4
# [47] = system: K562
# [48] = system: HCC 2998
# [49] = system: SK-MEL-28
# [50] = system: DU-145
# [51] = system: Hs-578T
# [52] = system: UO-31
# [53] = system: SNB-75
# [54] = system: SR
# [55] = system: HOP-62
# [56] = system: MDA-MB-231
# [57] = system: SF-268
# [58] = system: SF-539
# [59] = system: RXF 393
smiles,measurement,setting,value
CCOC(=O)C(CS)NC(=O)CCCCCCCC(=O)O (centres undefined),GI50,[1],> 100000 nM (inactive)
same,GI50,[2],> 100000 nM (inactive)
same,GI50,[3],> 100000 nM (inactive)
same,GI50,[4],> 100000 nM (inactive)
same,GI50,[5],> 100000 nM (inactive)
same,GI50,[6],> 100000 nM (inactive)
same,GI50,[7],> 100000 nM (inactive)
same,GI50,[8],> 100000 nM (inactive)
same,GI50,[9],> 100000 nM (inactive)
same,GI50,[10],> 100000 nM (inactive)
same,GI50,[11],> 100000 nM (inactive)
same,GI50,[12],78300 nM (inactive)
same,GI50,[13],> 100000 nM (inactive)
same,GI50,[14],> 100000 nM (inactive)
same,GI50,[15],> 100000 nM (inactive)
same,GI50,[16],> 100000 nM (inactive)
same,GI50,[17],> 100000 nM (inactive)
same,GI50,[18],> 100000 nM (inactive)
same,GI50,[19],> 100000 nM (inactive)
same,GI50,[20],41500 nM (inactive)
same,GI50,[21],> 100000 nM (inactive)
same,GI50,[22],> 100000 nM (inactive)
same,GI50,[23],> 100000 nM (inactive)
same,GI50,[24],> 100000 nM (inactive)
same,GI50,[25],> 100000 nM (inactive)
same,GI50,[26],> 100000 nM (inactive)
same,GI50,[27],> 100000 nM (inactive)
same,GI50,[28],> 100000 nM (inactive)
same,GI50,[29],> 100000 nM (inactive)
same,GI50,[30],> 100000 nM (inactive)
same,GI50,[31],> 100000 nM (inactive)
same,GI50,[32],> 100000 nM (inactive)
same,GI50,[33],> 100000 nM (inactive)
same,GI50,[34],> 100000 nM (inactive)
same,GI50,[35],> 100000 nM (inactive)
same,GI50,[36],> 100000 nM (inactive)
same,GI50,[37],> 100000 nM (inactive)
same,GI50,[38],> 100000 nM (inactive)
same,GI50,[39],> 100000 nM (inactive)
same,GI50,[40],> 100000 nM
same,GI50,[41],> 100000 nM (inactive)
same,GI50,[42],> 100000 nM (inactive)
same,GI50,[43],> 100000 nM (inactive)
same,GI50,[44],> 100000 nM (inactive)
same,GI50,[45],> 100000 nM (inactive)
same,GI50,[46],> 100000 nM (inactive)
same,GI50,[47],> 100000 nM (inactive)
same,GI50,[48],> 100000 nM (inactive)
same,GI50,[49],> 100000 nM (inactive)
same,GI50,[50],> 100000 nM (inactive)
same,GI50,[51],> 100000 nM (inactive)
same,GI50,[52],> 100000 nM (inactive)
same,GI50,[53],724 nM (active)
same,GI50,[54],> 100000 nM (inactive)
same,GI50,[55],> 100000 nM (inactive)
same,GI50,[56],> 100000 nM (inactive)
COc1ccc(SCc2cc(OCc3ccccc3)c(OCc3ccccc3)c(OCc3ccccc3)c2)cc1,GI50,[1],1760 nM (inactive)
same,GI50,[2],2110 nM (inactive)
same,GI50,[3],1830 nM (inactive)
same,GI50,[4],2060 nM (inactive)
same,GI50,[5],1710 nM (inactive)
same,GI50,[7],1640 nM (inactive)
same,GI50,[8],1750 nM (inactive)
same,GI50,[9],2160 nM (inactive)
same,GI50,[10],1790 nM (inactive)
same,GI50,[11],2840 nM (inactive)
same,GI50,[12],1730 nM (inactive)
same,GI50,[13],1710 nM (inactive)
same,GI50,[57],1770 nM (inactive)
same,GI50,[14],1830 nM (inactive)
same,GI50,[15],1920 nM (inactive)
same,GI50,[16],1520 nM (inactive)
same,GI50,[17],1870 nM (inactive)
same,GI50,[18],2380 nM (inactive)
same,GI50,[19],1870 nM (inactive)
same,GI50,[20],1720 nM (inactive)
same,GI50,[21],1920 nM (inactive)
same,GI50,[58],1930 nM (inactive)
same,GI50,[22],1840 nM (inactive)
same,GI50,[23],1780 nM (inactive)
same,GI50,[59],1920 nM (inactive)
same,GI50,[24],1700 nM (inactive)
same,GI50,[25],1620 nM (inactive)
same,GI50,[26],1790 nM (inactive)
same,GI50,[27],1750 nM (inactive)
same,GI50,[28],2000 nM (inactive)
same,GI50,[29],1890 nM (inactive)
same,GI50,[30],2850 nM (inactive)
same,GI50,[31],1770 nM (inactive)
same,GI50,[32],2690 nM (inactive)
same,GI50,[33],1900 nM (inactive)
same,GI50,[34],1560 nM (inactive)
same,GI50,[35],1550 nM (inactive)
same,GI50,[36],2240 nM (inactive)
same,GI50,[37],1540 nM (inactive)
same,GI50,[38],1710 nM (inactive)
same,GI50,[39],1650 nM (inactive)
same,GI50,[40],1840 nM
same,GI50,[41],1720 nM (inactive)
same,GI50,[42],1830 nM (inactive)
same,GI50,[43],1600 nM (inactive)
same,GI50,[44],1650 nM (inactive)
same,GI50,[45],1770 nM (inactive)
same,GI50,[46],1800 nM (inactive)
same,GI50,[47],1210 nM (inactive)
same,GI50,[48],1430 nM (inactive)
same,GI50,[49],2070 nM (inactive)
same,GI50,[50],1750 nM (inactive)
same,GI50,[51],2120 nM (inactive)
same,GI50,[52],1760 nM (inactive)
same,GI50,[53],1580 nM (inactive)
same,GI50,[54],493 nM (active)
same,GI50,[55],1810 nM (inactive)
same,GI50,[56],1360 nM (inactive)
